# Measured values from patent EP4703354A1, “COMPOUND AS CCR6 ANTAGONIST, AND PHARMACEUTICAL COMPOSITION AND USE THEREOF” (Wuhan Createrna Science and Technology Co.,Ltd., priority 2023, dated 2024).
# Where two headings read alike, the source gives them in different places.
# How the values were obtained:
# human CCR6 = biological target: T1, human CCR6 (Homo sapiens, UniProt P51684); assay: human CCR6 calcium flux activity (FLIPR, HEK293 cells stably expressing human CCR6, CCL20 stimulation); format: cell-based; details: HEK293 cells stably expressing human CCR6, EC80 human MIP-3 alpha/CCL20; read-out: CCR6 inhibitory activity, IC50
# T1 construct: expressed in transfected cells; host or cells: HEK293
# T1 sequence (P51684 1-374): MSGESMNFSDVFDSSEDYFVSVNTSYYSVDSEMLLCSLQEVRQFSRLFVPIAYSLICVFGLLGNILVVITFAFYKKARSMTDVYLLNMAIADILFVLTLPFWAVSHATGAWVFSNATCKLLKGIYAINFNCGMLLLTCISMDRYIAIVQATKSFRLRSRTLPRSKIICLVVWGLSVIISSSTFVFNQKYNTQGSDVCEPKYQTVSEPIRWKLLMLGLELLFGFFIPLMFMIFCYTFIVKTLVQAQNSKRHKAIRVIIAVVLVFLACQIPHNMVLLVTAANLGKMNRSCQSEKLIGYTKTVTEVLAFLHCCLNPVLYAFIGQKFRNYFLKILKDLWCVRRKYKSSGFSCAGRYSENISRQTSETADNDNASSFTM
# Outline: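 Compounds preincubated with Fluo-4 Direct-loaded cells 50 min at 37 °C, then 10 min at room temperature, before CCL20 challenge at EC80. Fluorescence (ex 494/em 516 nm) recorded 90 s; max−min signal gives inhibition, four-parameter fit yields IC50.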
# [1] = in vitro liver microsome metabolic stability, human; format: in vitro ADME; details: Human liver microsomes, 37°C
# Method: (§1) Preparation of working solutions for test compounds and standards: An appropriate amount of the compound was accurately weighed and dissolved in a corresponding volume of suitable solvent to prepare 1 mM stock solutions of the test compounds and standards. The stock solutions were then diluted with appropriate solvent to obtain 100 µM working solutions of the test compounds, ensuring that the DMSO content in the working solutions remained below 10%.
# (§2) The internal standard compound testosterone (or tolbutamide) and its corresponding solvent, internal standard concentration (200 ng/mL), were selected based on the properties of the test compound.
# (§3) • Solution A: 0.1 mol/L K2HPO4 (2.28 g K2HPO4·3H2O was dissolved in 100 mL of double-distilled water); • Solution B: 0.1 mol/L KH2PO4 (1.36 g KH2PO4 was dissolved in 100 mL of double-distilled water); • 80.2 mL of Solution A and 19.8 mL of Solution B were mixed thoroughly, and the pH was adjusted to 7.4.
# (§4) 37.5 mg of glycine was weighed, dissolved in 100 mL of ultrapure water, and adjusted to pH 8.0 with NaOH.
# (§5) 1.25 mg of glucose-6-phosphate dehydrogenase (400 U/mg) was weighed (the specific amount weighed was calculated based on the activity of the purchased glucose-6-phosphate dehydrogenase), dissolved in 1 mL of glycine buffer to a concentration of 500 U/mL, aliquoted into 20 µL per tube, and stored at -20°C for future use.
# (§6) 7.83 mg of NADP, 0.06 mL of D-glucose-6-phosphate (260 mg/mL), and 10.17 mg of MgCl2·6H2O were precisely weighed.
# (§7) The mixture was dissolved in 1 mL of pure water. The cofactor ratio composition: NADP 10 mM, D-glucose-6-phosphate 60 mM, MgCl2·6H2O 50 mM.
# (§8) The reaction system (taking a 500 µL system as an example) was composed of the following solution ratios: 416.5 µL phosphate buffer, 5 µL compound working solution, 25 µL liver microsomes, 3.5 µL glucose-6-phosphate dehydrogenase, and 50 µL cofactor solution. The total incubation volume could be adjusted according to experimental requirements.
# (§9) 416.5 µL of phosphate buffer was taken, 25 µL of liver microsomes, 3.5 µL of glucose-6-phosphate dehydrogenase, and 50 µL of cofactor solution were added, vortexed twice to mix, and preincubated in a 37°C water bath for 5 minutes. Then, 5 µL of the test compound working solution was added, vortexed twice to mix, each time for 2-3 seconds, and placed in a 37°C water bath to initiate the reaction, with two parallel samples set. At 0.5 min, 1 min, 2 min, 5 min, 15 min, and 30 min after the reaction, 50 µL of the mixture was taken and added to centrifuge tubes containing 200 µL of 0°C pre-cooled internal standard working solution to terminate the reaction, vortexed for 1 minute to mix, and centrifuged at 13,000 rpm for 10 minutes in a 4°C pre-cooled high-speed centrifuge. The supernatant was collected for analysis. After the compound was added and vortex-mixed, 50 µL of the mixture was rapidly transferred to a centrifuge tube containing 200 µL of a pre-cooled (0°C) internal standard working solution to terminate the reaction, vortex-mixed for 1 minute, and used as the relative zero-point sample (relative to the standard group). The sample was then placed into a 37°C water bath to initiate the reaction, and timing was started.
# (§10) The sample analysis of the test compound was performed using the liquid chromatography-tandem mass spectrometry (LCMS/MS) method. The semi-quantitative determination was performed using the ratio of the analyte peak area to the internal standard peak area. The retention times of the analyte and internal standard, chromatogram acquisition, and chromatogram integration were processed using Analyst software.
# (§11) The in vitro elimination rate constant k of the test compound and the control compound was determined by converting the ratio of the peak area of the test compound to the internal standard into the remaining rate, and T1/2 was then calculated according to the following formula. T1/2 = (Ln2)/(k) = (0.693)/(k) [formula] Table 3. […]
# [2] = in vitro liver microsome metabolic stability, rat; format: in vitro ADME; details: Rat liver microsomes, 37°C
# Method: as §1, §2, §3, §4, §5, §6, §7, §8, §9, §10, §11
# [3] = in vitro liver microsome metabolic stability, beagle dog; format: in vitro ADME; details: Beagle dog liver microsomes, 37°C
# Method: as §1, §2, §3, §4, §5, §6, §7, §8, §9, §10, §11
# [4] = in vivo pharmacokinetic study in SD rats; details: rat; for bioavailability: 1 mg/kg PO vs 1 mg/kg IV, read-out: Oral bioavailability F (%); for AUC(0-t) / Cmax / half-life: 1 mg/kg
# Outline: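 Male SD rats (180-200 g), 3 per route: single fasted oral gavage in 1% Tween 80 or tail-vein IV bolus in 50% PEG400. Orbital blood into EDTA-K2 sampled to 8 h; plasma analysed and PK parameters derived by non-compartmental analysis.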
Structure (SMILES),Liver microsome T1-2 (min) Human [1],Liver microsome T1-2 (min) Rat [2],Liver microsome T1-2 (min) Beagle dog [3],other results
"Cc1cccnc1[C@H](Nc1c(Nc2ccc(F)c(C(=O)N(C)C)c2O)c(=O)c1=O)C1(C)CC(F)(F)C1 [compound 089, (R)-3-((2-(((3,3-difluoro-1-methylcyclobutyl)(3-methylpyridin-2-yl)methyl)amino)-3,4-dioxocyclobut-1-en-1-yl)amino)-6-fluoro-2-hydroxy-N,N-dimethylbenzamide]",331.10 min,88.93 min,258.52 min,"bioavailability ([4]; male, plasma): 21.1%; AUC(0-t) ([4]; male, plasma, IV): 772 ng·h/mL; Cmax ([4]; male, plasma, IV): 4300 ng/mL; AUC(0-t) ([4]; male, plasma, PO): 163 ng·h/mL; Cmax ([4]; male, plasma, PO): 96.4 ng/mL; half-life ([4]; male, plasma, PO): 2.61 h"
"CN(CC(F)(F)F)C(=O)c1nccc(Nc2c(N[C@@H](c3ccc(F)cn3)C3(C)CCCC3)c(=O)c2=O)c1O [compound 070, (R)-4-((2-(((5-fluoropyridin-2-yl)(1-methylcyclopentyl)methyl)amino)-3,4-dioxocyclobut-1-en-1-yl)amino)-3-hydroxy-N-methyl-N-(2,2,2-trifluoroethyl)picolinamide]",201.75 min,34.22 min,37.22 min,
"Cc1cccnc1C(Nc1c(Nc2ccc(Cl)c(C(=O)N(C)C)c2O)c(=O)c1=O)C1(C)CCOC1 (stereo not shown) [compound 083, 6-chloro-2-hydroxy-N,N-dimethyl-3-((2-(((3-methylpyridin-2-yl)(3-methyltetrahydrofuran-3-yl)methyl)amino)-3,4-dioxocyclobut-1-en-1-yl)amino)benzamide]",412.77 min,290.38 min,741.46 min,
CN(C)C(=O)c1nccc(Nc2c(NC(c3nc(C(F)(F)F)ccc3F)C3(C)CC(F)(F)CO3)c(=O)c2=O)c1O (stereo not shown) [compound 098],208.30 min,195.59 min,102.59 min,"bioavailability ([4]; in vivo): 21.6%; AUC(0-t) ([4]; in vivo, IV): 630 ng·h/mL; Cmax ([4]; in vivo, IV): 2740 ng/mL; AUC(0-t) ([4]; in vivo, PO): 136 ng·h/mL; Cmax ([4]; in vivo, PO): 102 ng/mL; half-life ([4]; in vivo, PO): 2.74 h"
"CN(C)C(=O)c1nccc(Nc2c(N[C@@H](c3nc(C(F)F)ccc3F)C3(C)CC(F)(F)CO3)c(=O)c2=O)c1O (stereo partly drawn) [compound 097, 4-((2-(((1S)-(4,4-difluoro-2-methyltetrahydrofuran-2-yl)(6-(difluoromethyl)-3-fluoropyridin-2-yl)methyl)amino)-3,4-dioxocyclobut-1-en-1-yl)amino)-3-hydroxy-N,N-dimethylpicolinamide]",724.74 min,230.78 min,209.62 min,

# More lines, main results first:
Liver microsome T1-2 (min) Human [1],Liver microsome T1-2 (min) Rat [2],Liver microsome T1-2 (min) Beagle dog [3],Structure (SMILES),other results
548.28 min,266.64 min,982.5 min,"CC#CC(Nc1c(Nc2ccnc(C(=O)N(C)C)c2O)c(=O)c1=O)C1(C)CCC(F)(F)C1 (stereo not shown) [compound 111, 4-((2-((1-(3,3-difluoro-1-methylcyclopentyl)but-2-yn-1-yl)amino)-3,4-dioxocyclobut-1-en-1-yl)amino)-3-hydroxy-N,N-dimethylpicolinamide]",IC50 (human CCR6): 106 nM
158.82 min,216.24 min,222.45 min,"Cc1cccnc1[C@H](Nc1c(Nc2ccnc(C(=O)N(C)C)c2O)c(=O)c1=O)[C@]1(C)CC(F)(F)CO1 (single isomer, unassigned) [128B]","bioavailability ([4]; male, plasma): 36.7%; AUC(0-t) ([4]; male, plasma, IV): 910 ng·h/mL; Cmax ([4]; male, plasma, IV): 3270 ng/mL; AUC(0-t) ([4]; male, plasma, PO): 334 ng·h/mL; Cmax ([4]; male, plasma, PO): 182 ng/mL"
345.84 min,54.23 min,252.63 min,"CN(C)C(=O)c1nccc(Nc2c(N[C@@H](c3ccc(Cl)cn3)C3(C)CCCC3)c(=O)c2=O)c1O [compound 013, (R)-4-((2-(((5-chloropyridin-2-yl)(1-methylcyclopentyl)methyl)amino)-3,4-dioxocyclobut-1-en-1-yl)amino)-3-hydroxy-N,N-dimethylpicolinamide]",IC50 (human CCR6): 19.3 nM
261.96 min,290.01 min,275.16 min,"Cc1cccnc1[C@H](Nc1c(Nc2ccnc(C(=O)N(C)C)c2O)c(=O)c1=O)C1(C)CCCO1 (stereo partly drawn) [compound 082, 3-hydroxy-N,N-dimethyl-4-((2-(((1S)-(3-methylpyridin-2-yl)(2-methyltetrahydrofuran-2-yl)methyl)amino)-3,4-dioxocyclobut-1-en-1-yl)amino)picolinamide]",
209.60 min,50.16 min,355.30 min,"Cc1nccnc1[C@H](Nc1c(Nc2ccc(F)c(C(=O)N(C)C(C)C)c2O)c(=O)c1=O)C1(C)CCCC1 [compound 090, (R)-6-fluoro-2-hydroxy-N-isopropyl-N-methyl-3-((2-(((1-methylcyclopentyl)(3-methylpyrazin-2-yl)methyl)amino)-3,4-dioxocyclobut-1-en-1-yl)amino)benzamide]",
511.03 min,120.46 min,431.98 min,"Cc1cccnc1C(Nc1c(Nc2ccc(F)c(C(=O)N(C)C)c2O)c(=O)c1=O)[C@]1(C)CC(F)(F)CO1 (stereo partly drawn) [087A, 3-((2-((((S)-4,4-difluoro-2-methyltetrahydrofuran-2-yl)(3-methylpyridin-2-yl)methyl)amino)-3,4-dioxocyclobut-1-en-1-yl)amino)-6-fluoro-2-hydroxy-N,N-dimethylbenzamide]",
539.06 min,109.92 min,1205.26 min,"Cc1cccnc1C(Nc1c(Nc2ccc(Cl)c(C(=O)N(C)C)c2O)c(=O)c1=O)C1(C)CC(F)(F)CO1 (stereo not shown) [compound 080, 6-chloro-3-((2-(((4,4-difluoro-2-methyltetrahydrofuran-2-yl)(3-methylpyridin-2-yl)methyl)amino)-3,4-dioxocyclobut-1-en-1-yl)amino)-2-hydroxy-N, N-dimethylbenzamide]",
